Experiment [1] deals with T1, cathepsin B (Mus musculus, UniProt P10605).
T1 construct: from tissue; host or cells: mouse ipsilateral brain cortex (homogenate and cytosol) after controlled cortical impact TBI
The experiment can be described thus: Cathepsin B activity in ipsilateral brain cortex of TBI mice. Format: in vivo. The settings on record: 20 mg/kg, ip; day 6 after TBI. How it is done:
(§1) FIGS. 13a-13e show traumatic brain injury (TBI) in mice results in elevated brain cathepsin B activity, involved in motor deficit. […] Mice were subjected to the controlled cortical impact (CCI) model of TBI. Motor function was assessed by the rotarod assay on days 1, 3, and 7 after TBI. Control sham mice received surgery of the scalp but no TBI. Rotarod data are shown as mean+SD (n=5/group, mean+sem, *p<0.05, student's t-test). […] The TBI injury was conducted on the ipsilateral side of the brain cortex, shown by the tissue lesion at the site of TBI impact. […] Cathepsin B activity in homogenate of mouse brain cortex was measured with the Z-Nle-Lys-Arg-AMC substrate on day 6 after TBI. These TBI mice were treated with vehicle or Z-Arg-Lys-AOMK inhibitor (20 mg/kg, ip). (n=6 per group for vehicle-treated, and n=4 per group for treatment with inhibitor Z-Arg-Lys-AOMK; mean+sem, p<0.05, student's t-test).
Cytosol from brain homogenate (obtained on day 6 after TBI) was isolated by differential density centrifugation. Cathepsin B in the cytosol from brain cortex was measured by the substrate Z-Nle-Lys-Arg-AMC substrate. (n=6 per group for vehicle treated, and n=4 per group for treatment with inhibitor Z-Arg-Lys-AOMK: mean+sem, p<0.05, student's t-test).

A further experiment has as its system TBI mice. The experiment can be described thus: Rotarod motor function in controlled cortical impact (CCI) model of TBI. The note with it: 20 mg/kg, ip, one day before TBI, day of TBI and day 1 after; measured day 1 after TBI. Format: in vivo, mouse. On the procedure: as §1
TBI mice were treated with Z-Arg-Lys-AOMK inhibitor (20 mg/kg, ip) one day before TBI, on the day of TBI, and on day 1 after TBI. Motor function was measured on day 1 after TBI. (n=6 per group for vehicle-treated, and n=4 per group for treatment with inhibitor Z-Arg-Lys-AOMK; mean+sem, p<0.05, student's t-test).
(The rotarod test checks motor coordination on a turning rod.)

Experiment [2] concerns the target T1, cathepsin B. The experiment can be described thus: Cytosolic cathepsin B activity in microglia cells during low nutrient stress. The experiment is classed as cell-based. The settings on record: 2 μM; 0% FBS for 24 hours; substrate Z-Nle-Lys-Arg-AMC. On the procedure: (§2) Regulation of cathepsin B activity during cell death induced by low nutrient stress in microglia cells. […] Microglia cells (mouse BV2 cells) were treated with low nutrient culture media (0% fetal bovine serum, FBS) compared to a normal nutrient condition (10% FSB) for 24 hours. The low nutrient stress condition induced cell death monitored by LDH (lactate dehydrogenase) released into the culture media. The stress-induced increase in cell death was reduced by the inhibitor Z-Arg-Lys-AOMK (2 μM), a selective inhibitor of cathepsin B. (n=6, mean+sem, *p<0.05, student's t-test). […] Cathepsin B activity was elevated in cytosol isolated from microglia cells after treatment with low nutrient stress (0% FBS) for 24 hours. Cathepsin B activity was measured with the specific substrate Z-Nle-Lys-Arg-AMC ([…] in assay). Furthermore, the increase in cytosolic cathepsin B activity was blocked by the cathepsin B inhibitor Z-Arg-Lys-AOMK (2 μM) during low nutrient stress. (n=6, mean+sem, *p<0.05, student's t-test).

Experiment [3] deals with mouse BV2 microglia cells. The experiment can be described thus: Cell death (LDH release) induced by low nutrient stress in microglia cells. The experiment is classed as cell-based. The note with it: 2 μM; 0% FBS for 24 hours. On the procedure: as §2

T1 sequence (P10605 80-333): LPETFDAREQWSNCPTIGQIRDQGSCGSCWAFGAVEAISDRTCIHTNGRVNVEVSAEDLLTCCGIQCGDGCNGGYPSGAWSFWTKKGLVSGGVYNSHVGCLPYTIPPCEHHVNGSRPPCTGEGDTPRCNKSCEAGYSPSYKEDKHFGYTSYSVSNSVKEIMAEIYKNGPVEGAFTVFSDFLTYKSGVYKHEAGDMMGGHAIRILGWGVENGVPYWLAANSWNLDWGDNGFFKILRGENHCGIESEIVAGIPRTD

On to Z-Arg-Lys-AOMK, for which, on cathepsin B [1], the “cathepsin B activity in brain cortex cytosol” value is “inhibition of cathepsin B activity” and the “cathepsin B activity in brain cortex homogenate” value was “inhibition of cathepsin B activity”. In the experiment on TBI mice, the “motor deficit (rotarod)” value was “improved motor deficit”. Further, at cathepsin B [2], the “increase in cytosolic cathepsin B activity” value is given as “blocked”. In experiment [3], the “stress-induced increase in cell death (LDH released into the culture media)” value was “reduced”.

These data come from patent publication US20260265298A1, “PEPTIDE SUBSTRATES AND INHIBITORS OF CATHEPSIN B” (The Regents of the University of California, priority 2023, published 2026).
